# System: aP2 mRNA production
# Experiment: aP2 assay for agonist (induction of aP2 mRNA production, bDNA assay)
# Assay type: cell-based
# Details: preadipocytes
structure (smiles),measurement,value
"CCCCCCN1C(=O)C(CCOc2ccccc2CC(=O)O)Oc2ccccc21 (stereo not shown) [Compound 1, Benzeneacetic acid, 2-[2-(4-hexyl-3,4-dihydro-3-oxo-2H-1,4-benzoxazin-2-yl)ethoxy]-]",Agonist Intrinsic Activity,40.4 fold increase over vehicle

# — patent publication US6599899B2, “Benzoxazinones as peroxisome proliferator activated receptor gamma modulators and method of treatment” (Ortho-McNeil Pharmaceutical, Inc., priority 2000, dated 2003)
